From ChEMBL document CHEMBL1150061, “Isolation of 9-Dihydro-13-acetylbaccatin III from Taxus canadensis” (J Nat Prod, 1992) come the findings set out here.

This assay concerns P388. As to the kind of experiment: Antiproliferative activity against mouse P388 cells by MTT assay. It is filed as functional, cell-based. Background: Tetrazolium dyes change colour on reduction, which living cells bring about.

The structures appear in SMILES notation. In brackets after ≈: the same amount, converted by molar mass.

One may read the IC50 as the concentration that gives 50% inhibition. Low values mean higher potency, high ones lower potency. In turn, `CC(=O)O[C@H]1C[C@@]2(O)[C@@H](OC(=O)c3ccccc3)[C@@H]3[C@]4(OC(C)=O)CO[C@@H]4C[C@H](O)[C@@]3(C)[C@@H](O)[C@H](OC(C)=O)C(=C1C)C2(C)C` yielded an IC50 of 20 µg/mL (≈ 31.7 µM). Molecule `CC(=O)O[C@H]1C(=O)[C@@]2(C)[C@H]([C@H](OC(=O)c3ccccc3)[C@]3(O)C[C@H](OC(=O)[C@H](O)[C@@H](NC(=O)c4ccccc4)c4ccccc4)C(C)=C1C3(C)C)[C@]1(OC(C)=O)CO[C@@H]1C[C@@H]2O` [PACLITAXEL] yielded an IC50 of 0.05 µg/mL (≈ 0.0586 µM).
